Source: US20230310813A1, “DIMERIC NAPHTHALIMIDE COATING” (ALUCENT BIOMEDICAL, INC., priority 2020, published 2023)
Several values for one entry are separate records, joined by “and”; a condition that tells them apart may be missing. Equal values may be shown once. Entries after “also recorded” stand apart in the source; their conditions may differ.

Columns and labels:
Type in all cases: physicochemical
[1] = Room temperature stability of coated balloons; conditions: for amount of main impurity by LC / formation of impurities over time: 25° C., 60% RH, 0-24 months
Protocol: Angioplasty balloons coated with the Compound of Formula (I) (“10-8-10 compound”) were tested for their stability at 25° C. over a period of 0, 3, 6, and 12 months. The products described in Table 4 were placed in storage at 25° C.
Samples of each article were taken after 0, 3, 6, 12, 18 and 24 months of storage at 25° C., 60% RH.

[2] = Stability of coated balloon coating after sterilization (UPLC/HPLC)
Protocol: A solvent system was prepared by combining ethanol and water and acetic acid in a volume ratio of 89.5:10:0.5. The resulting mixture was then mixed at room temperature until a colorless, clear mixture was obtained. Compound of Formula (I) was then added in the indicated amount and the resulting mixture was mixed at room temperature until a yellow/orange translucent mixture was obtained. This mixture was applied to a 5 mm×60 mm balloon by a pipetting method. The coated balloon was then dried to evaporate the solvent. A coated balloon with a coating thickness of 10 μg/mm^2 was obtained. The calculated amount of Compound of Formula (I) on the coated balloon was 7759 μg.
Coated balloons from Example 3 were sterilized either by ethylene oxide sterilization (EO), gamma sterilization (Gamma) or electron beam sterilization (E-Beam). A group of control balloons was left untreated (Control). After sterilization, a sample of the coating on each of the coated balloons was removed and analyzed.

[3] = Storage stability in solvent systems
Protocol: (§1) The solubility and stability of solvent systems were determined.

[4] = Solubility of Compound of Formula (I) in solvent systems
Protocol: (§2) The non-limiting exemplary and comparative solvent systems listed in Table 1 were prepared by combining the components of the solvent system at the indicated concentrations. The resulting mixture was then mixed at room temperature until a colorless, clear mixture was obtained. Compound of Formula (I) was then added in the indicated amount and the resulting mixture was mixed at room temperature until a yellow/orange translucent mixture was obtained.
as §1

[5] = Stability of coated balloon in reduced oxygen and reduced moisture packaging; conditions: coated balloon stored in reduced oxygen and reduced moisture packaging
Protocol: Packaged coated balloons were prepared as follows. A coated balloon from Example 3 was placed in a foil pouch. The concentration of oxygen within the foil pouch was reduced by purging with nitrogen. A desiccant was added to the foil pouch before sealing the oxygen-purged foil pouch comprising the coated balloon and the desiccant.
At various time points after packaging, a coated balloon was taken out of its packaging. A sample of the coating on the coated balloon was removed and analyzed.

[6] = 10-8-10 stability over 8 hours in solvent systems
Protocol: The purity of a composition was analyzed by UPLC or HPLC.
as §2

[7] = coated balloon after electron beam sterilization (E-Beam)
[8] = coated balloon after ethylene oxide sterilization (EO)
[9] = coated balloon after gamma sterilization (Gamma)
[10] = coated balloon, Control (not sterilized)

NCCOCCOCCNc1ccc2c3c(cccc13)C(=O)N(CCOCCOCCN1C(=O)c3cccc4c(NCCOCCOCCN)ccc(c34)C1=O)C2=O [Compound of Formula (I), 2,2′-((ethane-1,2-diylbis(oxy))bis(ethane-2,1-diyl))bis(6-((2-(2-(2-aminoethoxy)ethoxy)ethyl)amino)-1H-benzo[de]isoquinoline-1,3(2H)-dione)]
degradation ([1]; coated article stored at room temperature): degrades appreciably
degradation rate over time at room temperature ([1]; coating further comprising at least one antioxidant): reduced
amount of main impurity by LC / formation of impurities over time ([1]; coating with BHT vs coating of only Compound of Formula (I)): lower amounts; also recorded: reduction
amount of main impurity by LC / formation of impurities over time ([1]; coating with tromethamine vs coating of only Compound of Formula (I)): lower amounts; also recorded: reduction
change in impurity concentration ([2]; coated article after radiation sterilization (gamma irradiation, electron beam)): No change or minimal increase; also recorded: minimal increase
degradation ([2]; coated article subjected to ethylene oxide sterilization): degrades appreciably
Compound of Formula (I) (HPLC area-%) [2, 7]: 98.22 HPLC area-% and 98.33 HPLC area-% and 98.37 HPLC area-%
Total impurities (HPLC area-%) [2, 7]: 1.78 HPLC area-% and 1.67 HPLC area-% and 1.63 HPLC area-%
Compound of Formula (I) (HPLC area-%) [2, 8]: 94.75 HPLC area-% and 94.26 HPLC area-% and 94.35 HPLC area-%
Total impurities (HPLC area-%) [2, 8]: 5.25 HPLC area-% and 5.74 HPLC area-% and 5.65 HPLC area-%
Compound of Formula (I) (HPLC area-%) [2, 9]: 98.32 HPLC area-% and 98.37 HPLC area-% and 98.28 HPLC area-%
Total impurities (HPLC area-%) [2, 9]: 1.68 HPLC area-% and 1.63 HPLC area-% and 1.72 HPLC area-%
Compound of Formula (I) (HPLC area-%) [2, 10]: 98.33 HPLC area-% and 98.32 HPLC area-%
Total impurities (HPLC area-%) [2, 10]: 1.67 HPLC area-% and 1.68 HPLC area-%
Storage stability ([3]; EtOH/Water (90:10)): ✓
Storage stability ([3]; EtOH/Water/Acetic Acid (89.5:10:0.5)): ✓
solubility and stability ([3]; ethanol, water, acetic acid (89.5:10:0.5) solvent system): exhibited both solubility and stability
solubility and stability ([3]; ethanol/water (90:10) solvent system): exhibited both solubility and stability
Solubility >2% w/w ([4]; Table 1, solvent system 89.5% Ethanol/10% water/0.5% acetic acid): ✓
Solubility >2% w/w ([4]; Table 1, solvent system 99% Ethanol/1% Acetone): ✓
Solubility >2% w/w ([4]; Table 1, solvent system Ethanol/Acetone/BHT): ✓
Solubility >2% w/w ([4]; Table 1, solvent system Ethanol/MEK): ✓
Solubility >2% w/w ([4]; Table 2, EtOH/Acetic Acid (99.5:0.5)): ✓
Solubility >2% w/w ([4]; Table 2, EtOH/Water (90:10)): ✓
Solubility >2% w/w ([4]; Table 2, EtOH/Water (98:2)): ✓
Solubility >2% w/w ([4]; Table 2, EtOH/Water/Acetic Acid (89.5:10:0.5)): ✓
Solubility >2% w/w ([4]; Table 2, EtOH/Water/Acetic Acid (99.4:0.5:0.1)): ✓
increase in impurity concentration [5]: minimal
10-8-10 stability over 8 hours ([6]; solvent system 89.5% Ethanol/10% water/0.5% acetic acid): ✓
10-8-10 stability over 8 hours ([6]; solvent system 99.5% Ethanol/0.5% acetic acid): ✓
10-8-10 stability over 8 hours ([6]; solvent system Ethanol/IPA): ✓
degradation ([6]; solvent system comprising ethanol, water, and acetic acid): does not degrade appreciably
